Test [1] concerns BM cells. As to the kind of experiment: Protein array of spent medium from treated BM cells. It is filed as cell-based, mouse. As for the experimental part:
Bone marrow (BM) cells were prepared. Briefly, the femurs and tibias were obtained from five C57BL/6 female mice, and the ends were removed to expose the hollow bone packed with marrow. BM cells were flushed from the bones with cold Hanks Balanced Salt Solution (HBSS) using a sterile disposable 22 g needle and pooled. Red blood cells (RBCs) were lysed using Tris-buffered ammonium chloride and resultant cells were washed 3 times in HBSS. BM cells were suspended in tissue culture medium (TCM) (RPMI 1640 with glutaminie plus […] PenStrep, 50 uM 2-mercaptoethanol, and 5% fetal calf serum) at approximately 5×10^6 cells/ml and incubated for 1 hour at 37° C. in a 5% CO2 atmosphere in plastic tissue culture flasks to remove adherent, mature macrophages. Decanted non-adherent cells were resuspended in TCM and 1.5×10^6 BM cells in 1 ml were placed into each well of a 24-well tissue culture plate (Falcon) and either left untreated or treated with 14.5 micromoles of J, gD, JgD or JH vaccines. After incubation for 48 hrs at 37° C., cells were viewed and photographed for changes in morphology, tissue culture supernatants were removed and the cells were prepared for flow cytometric analysis.

Test [2] has as its system human monocytes. Type of test: cell-based. Particulars: DC precursors (GMCSF and IL4), spent medium.
Test [3] deals with A/J or C57BL/6 female mice. Type of test: in vivo, mouse.
Test [4] relates to CD3- BM cells. As to the kind of experiment: Surface CD8 and intracellular IL-12p70 in CD3-depleted bone marrow cells. It is filed as cell-based, mouse. Particulars: BM cells after treatment. The source says:
CD3+ cells were removed from BM cells using the fluorescence activated cell sorter and then untreated or treated with JgD or JH. Flow cytometric analysis of the sorted population confirmed the removal of CD3 positive cells. The CD3− BM cells were labeled with FITC-anti-CD8 (Beckman Coulter (clone 53-6.7)), fixed with paraformaldehyde, permeabilized with saponin (Intraprep, Immunotech), labeled with PE-anti-IL-12p70 (Beckman Coulter) and then post fixed with paraformaldehyde prior to immunofluorescence analysis.

The test system of test [5] is A/J or C57BL/6 female mice. It is filed as in vivo, mouse. Particulars: sera of days 3, 10 and 24.
The test system of test [6] is C57BL/6 bone marrow (BM) cells. Type of test: cell-based, mouse. Particulars: second day after treatment, 14.5 micromoles.

For “J-ICBL: immune cell binding ligand, amino acid 38-50 from the β-2-microglobulin (DLLKNGERIEKVE), unconjugated”, the “cytokine response in spent medium of treated BM cells” value in test [1] was “failed to detect a cytokine response”. Moreover, the “production of cytokines (protein array)” value in test [2] is “no significant production of cytokines”. For the same substance, the “IL-10 serum level relative to adjuvant control” value in test [3] is given as “significantly decreased to only a half or to a third”. In test [3] (versus adjuvant control), the IL-12p40 serum level result was “small but not significant increase” and the IL-12p70 serum level entry is reported as “small but not significant increase”. For the same substance, the IL-12p70 expressing cells result in test [4] is listed as “no significant increase”. Further, in test [5], the “IL-12p70 in sera (direct ELISA), in words” value was “only trace or undetectable amounts”. For the same substance, in test [6], the “CD11c expression on monocyte population of BM cells” value is “no discernable change” and the “CD86 expression on monocyte population of BM cells” value is reported as “no discernable change”.
